Experimental data as given in ChEMBL document CHEMBL3885881, “DrugMatrix”.

Species: Rattus norvegicus
Test: DrugMatrix - Regimen: Daily Repeat
Assay type: toxicity, organism-based, Sprague-Dawley
Design: regimen Daily Repeat, gender Male, age 6-8 weeks
Settings: in vivo, sc, route mini-PUMP - SUBCUTANEOUS, vehicle 100 % SALINE; for TOTAL PROTEIN / ALANINE AMINOTRANSFERASE / ALBUMIN / ALKALINE PHOSPHATASE / ASPARTATE AMINOTRANSFERASE / BLOOD UREA NITROGEN / CARBON DIOXIDE / CHLORIDE / CHOLESTEROL / LACTATE DEHYDROGENASE / LIPASE / PHOSPHORUS / POTASSIUM / SODIUM / CREATININE / TOTAL BILIRUBIN: tissue Plasma; for ABSOLUTE BASOPHIL / ABSOLUTE EOSINOPHIL / ABSOLUTE LYMPHOCYTE / ABSOLUTE MONOCYTE / ABSOLUTE SEGMENTED NEUTROPHIL / BASOPHIL / EOSINOPHIL / ERYTHROCYTE COUNT / HEMOGLOBIN / LEUKOCYTE COUNT / LYMPHOCYTE / MEAN CORPUSCULAR HEMOGLOBIN / MEAN CORPUSCULAR HEMOGLOBIN CONCENTRATION / MEAN CORPUSCULAR VOLUME / NUCLEATED RED BLOOD CELLS / PLATELET COUNT: tissue Blood
[1] = 0 mg/kg, 120 h, dose level Control, time 5 day
[2] = 0 mg/kg, […], dose level Control, time 14 day
[3] = […], dose 0.77 mg/Kg, dose level High, time 14 day

For CNC[C@H](O)c1ccc(O)c(O)c1 [EPINEPHRINE], the “TOTAL PROTEIN” value (0 mg/kg, 72 h, dose level Control, time 3 day) was 6.05 G/DL, the “ABSOLUTE BASOPHIL” value [1] was 0 CELLS/uL and the “ABSOLUTE EOSINOPHIL” value [1] was 0 CELLS/uL. The “ABSOLUTE LYMPHOCYTE” value [1] was 14257.33 CELLS/uL, the “ABSOLUTE MONOCYTE” value [1] was 326 CELLS/uL and the “ABSOLUTE SEGMENTED NEUTROPHIL” value [1] was 3216.67 CELLS/uL. The BASOPHIL [1] was 0%, the EOSINOPHIL [1] was 0% and the “ERYTHROCYTE COUNT” value [1] was 6.11 x10E6/uL. The HEMOGLOBIN [1] was 13.18 G/DL, the “LEUKOCYTE COUNT” value [1] was 17.8 x10E3/uL and the LYMPHOCYTE [1] was 80.5%. For the same molecule, the “MEAN CORPUSCULAR HEMOGLOBIN” value [1] was 21.62 pg, the “MEAN CORPUSCULAR HEMOGLOBIN CONCENTRATION” value [1] was 36.42 G/DL and the “MEAN CORPUSCULAR VOLUME” value [1] was 59.37 fL. For the same molecule, the “NUCLEATED RED BLOOD CELLS” value [1] was 0 /100WBC, the “PLATELET COUNT” value [1] was 1311 x10E3/uL and the “ALANINE AMINOTRANSFERASE” value [1] was 47 u/L. The ALBUMIN [1] was 3.83 G/DL, the “ALKALINE PHOSPHATASE” value [1] was 260.33 u/L and the “ASPARTATE AMINOTRANSFERASE” value [1] was 76.17 u/L. The “BLOOD UREA NITROGEN” value [1] was 14.67 mg/dL, the “CARBON DIOXIDE” value [1] was 31.33 mmol/L and the CHLORIDE [1] was 101.17 MEQ/L. For the same molecule, the CHOLESTEROL [1] was 75 mg/dL, the “LACTATE DEHYDROGENASE” value [1] was 147.33 u/L and the LIPASE [1] was 9.33 u/L. For the same molecule, the PHOSPHORUS [1] was 10.97 mg/dL, the POTASSIUM [1] was 6 MEQ/L and the SODIUM [1] was 145.52 MEQ/L. For the same molecule, the “TOTAL PROTEIN” value [1] was 5.83 G/DL, the “ABSOLUTE BASOPHIL” value [2] was 0 CELLS/uL and the “ABSOLUTE EOSINOPHIL” value [2] was 64.5 CELLS/uL. For the same molecule, the “ABSOLUTE LYMPHOCYTE” value [2] was 12507.83 CELLS/uL, the “ABSOLUTE MONOCYTE” value [2] was 380.33 CELLS/uL and the “ABSOLUTE SEGMENTED NEUTROPHIL” value [2] was 2414 CELLS/uL. For the same molecule, the BASOPHIL [2] was 0%, the EOSINOPHIL [2] was 0.5% and the “ERYTHROCYTE COUNT” value [2] was 6.1 x10E6/uL. The HEMOGLOBIN [2] was 12.88 G/DL, the “LEUKOCYTE COUNT” value [2] was 15.37 x10E3/uL and the LYMPHOCYTE [2] was 80.83%. The “MEAN CORPUSCULAR HEMOGLOBIN” value [2] was 21.18 pg, the “MEAN CORPUSCULAR HEMOGLOBIN CONCENTRATION” value [2] was 36.43 G/DL and the “MEAN CORPUSCULAR VOLUME” value [2] was 58.17 fL. For the same molecule, the “NUCLEATED RED BLOOD CELLS” value [2] was 0.17 /100WBC, the “PLATELET COUNT” value [2] was 1016 x10E3/uL and the “ALANINE AMINOTRANSFERASE” value [2] was 53.33 u/L. For the same molecule, the ALBUMIN [2] was 3.93 G/DL, the “ALKALINE PHOSPHATASE” value [2] was 319.83 u/L and the “ASPARTATE AMINOTRANSFERASE” value [2] was 84 u/L. For the same molecule, the “BLOOD UREA NITROGEN” value [2] was 15.5 mg/dL, the “CARBON DIOXIDE” value [2] was 34 mmol/L and the CHLORIDE [2] was 101.83 MEQ/L. For the same molecule, the CHOLESTEROL [2] was 57 mg/dL, the CREATININE [2] was 0.21 mg/dL and the “LACTATE DEHYDROGENASE” value [2] was 104.67 u/L. It also gave an LIPASE [2] of 9.17 u/L, a PHOSPHORUS [2] of 11.12 mg/dL and a POTASSIUM [2] of 5.81 MEQ/L. The SODIUM [2] was 144.85 MEQ/L, the “TOTAL BILIRUBIN” value [2] was 0.18 mg/dL and the “TOTAL PROTEIN” value [2] was 5.92 G/DL. For the same molecule, the “ABSOLUTE BASOPHIL” value [3] was 0 CELLS/uL, the “ABSOLUTE EOSINOPHIL” value [3] was 121.6 CELLS/uL and the “ABSOLUTE LYMPHOCYTE” value [3] was 13213.6 CELLS/uL. For the same molecule, the “ABSOLUTE MONOCYTE” value [3] was 369.4 CELLS/uL, the “ABSOLUTE SEGMENTED NEUTROPHIL” value [3] was 2115.4 CELLS/uL and the BASOPHIL [3] was 0%. For the same molecule, the EOSINOPHIL [3] was 0.8%, the “ERYTHROCYTE COUNT” value [3] was 6.78 x10E6/uL and the HEMOGLOBIN [3] was 14.32 G/DL. The “LEUKOCYTE COUNT” value [3] was 15.82 x10E3/uL, the LYMPHOCYTE [3] was 84.2% and the “MEAN CORPUSCULAR HEMOGLOBIN” value [3] was 21.14 pg. The “MEAN CORPUSCULAR HEMOGLOBIN CONCENTRATION” value [3] was 36.3 G/DL, the “MEAN CORPUSCULAR VOLUME” value [3] was 58.22 fL and the “NUCLEATED RED BLOOD CELLS” value [3] was 0 /100WBC. The “PLATELET COUNT” value [3] was 976 x10E3/uL, the “ALANINE AMINOTRANSFERASE” value [3] was 53.2 u/L and the ALBUMIN [3] was 4.38 G/DL. The “ALKALINE PHOSPHATASE” value [3] was 383.4 u/L, the “ASPARTATE AMINOTRANSFERASE” value [3] was 82 u/L and the “BLOOD UREA NITROGEN” value [3] was 15.6 mg/dL. For the same molecule, the “CARBON DIOXIDE” value [3] was 34.2 mmol/L, the CHLORIDE [3] was 99.8 MEQ/L and the CHOLESTEROL [3] was 80.2 mg/dL. The CREATININE [3] was 0.21 mg/dL, the “LACTATE DEHYDROGENASE” value [3] was 111.2 u/L and the LIPASE [3] was 9 u/L. The PHOSPHORUS [3] was 11.84 mg/dL, the POTASSIUM [3] was 6.19 MEQ/L and the SODIUM [3] was 147.16 MEQ/L. The “TOTAL BILIRUBIN” value [3] was 0.14 mg/dL and the “TOTAL PROTEIN” value [3] was 6.7 G/DL.
